# Laboratory results reported in patent publication US12122750B2, “AT2R antagonists and uses thereof” (Eli Lilly and Company, priority 2022, dated 2024).
# Molecular target: recombinant human angiotensin-II receptor subtype I (hAT1R) (Homo sapiens (Human), UniProt P30556)
# Test: Competitive radioligand binding assay (SPA), hAT1R/CHO membranes
# Conditions: [125I]-Tyr4-Angiotensin-II, read-out: AT1R Ki
# Procedure: Membranes hATIR/CHO were Purchased from PerkinElmer, Inc.
# Cellular membranes prepared from Chinese hamster ovary (CHO) cells which expressed recombinant human angiotensin-II receptor subtype I (hAT1R), were purchased from PerkinElmer (Catalog Number ES-072-M400UA).
# Receptor Binding Protocol
# The assays were performed with a scintillation proximity assay (SPA) method using polyvinyltoluene (PVT) wheat germ agglutinin-coupled SPA beads (Perkin Elmer Cat. #RPNQ0001). Assay buffer containing BSA (50 mM Tris-HCl, pH 7.5, 150 mM NaCl, 0.1% w/v fatty-acid free BSA) was used for preparing radioligand, membrane and SPA bead reagent dilution to working stock concentrations. Reference control and test compounds were diluted to obtain ten-point concentration response curves using a four-fold serial dilution protocol onto assay plates, dispensed acoustically from DMSO stock using automated ECHO instrument technology (Labcyte, Inc.). Concentration response curves were routinely generated with the highest final assay concentration for the reference angiotensin-II control at 50 nM, and the highest final assay concentration for the test compounds at 50 μM. […] The hAT2R membrane was combined with PVT-WGA SPA beads to obtain a final assay concentration of 0.25 μg/well hAT2R membrane+0.1 mg/well PVT-WGA SPA bead. And the hAT1R membrane PVT-WGA SPA bead final concentrations was 0.5 μg/well hAT1R membrane+0.1 mg/well PVT-WGA SPA bead. […] For all assays, radioligand addition was followed by the addition of membrane-SPA bead mixture, i.e., the hAT2R membrane-SPA bead mixture (30 μL), the rAT2R membrane-SPA bead mixture, or the AT1R membrane-SPA bead mixture (30 μL) into the assay plate. All dispensing steps were added using a Multiflo FX (Biotek, Inc.) bulk dispensing instrument. After reagent addition steps, assay plates were sealed, and plate contents mixed for one minute on a benchtop micro-plate shaker. Following a 10-hour incubation at room temperature to allow for bead settling and radioligand binding, bound radioactivity was quantitated using a Microbeta Trilux scintillation counter (Perkin Elmer) and expressed as counts per minute (CPM). The unlabeled angiotensin-II control was included on each plate as an experimental assay reference.
# Compounds were tested in a 10-point concentration response curve (CRC) format, with each plate containing the positive control angiotensin-II positive reference compound, and experimental compounds. Maximum binding response (Max) was determined in 32 control wells per plate using assay buffer treatment only, and the minimum binding controls or nonspecific binding response (Min) was also determined in 32 wells per plate by the treatment with 50 nM angiotensin-II. All test sample concentration responses were normalized to the control response and calculated as a percent of the maximal response after correcting for nonspecific binding as shown below: % Specific inhibition=100%−[(CPM−Min)/(Max−Min)×100%]
# Percent specific binding (y-axis) was plotted versus the log concentration of compound (x-axis).
# Binding affinities for compounds of the present disclosure were determined according to the assay described herein.
# Binding affinities for compounds of the present disclosure were determined according to the assay described above.
# recombinant human angiotensin-II receptor subtype I (hAT1R), sequence (P30556 whole entry): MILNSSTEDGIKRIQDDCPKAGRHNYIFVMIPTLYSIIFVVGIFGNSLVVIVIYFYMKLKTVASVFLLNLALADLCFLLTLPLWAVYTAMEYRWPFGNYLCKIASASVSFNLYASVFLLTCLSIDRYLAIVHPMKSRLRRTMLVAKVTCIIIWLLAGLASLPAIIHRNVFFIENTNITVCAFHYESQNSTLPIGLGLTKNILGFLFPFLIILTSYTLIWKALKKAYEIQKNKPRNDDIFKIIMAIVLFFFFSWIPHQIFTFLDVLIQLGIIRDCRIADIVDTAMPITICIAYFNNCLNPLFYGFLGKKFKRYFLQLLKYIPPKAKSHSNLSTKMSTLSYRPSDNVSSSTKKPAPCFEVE
row,Ki,SMILES
1,37.3 µM,"CN(C(=O)N1CCC(CC(=O)N(c2ccccc2)[C@H]2CCCC(F)(F)C2)(C(=O)O)CC1)c1ccc(F)cc1 (single isomer, unassigned) [44B (isomer 2)]"

# Molecular target: recombinant human angiotensin-II receptor subtype 2 (hAT2R) (Homo sapiens (Human), UniProt P50052)
# Sequence (P50052 whole entry): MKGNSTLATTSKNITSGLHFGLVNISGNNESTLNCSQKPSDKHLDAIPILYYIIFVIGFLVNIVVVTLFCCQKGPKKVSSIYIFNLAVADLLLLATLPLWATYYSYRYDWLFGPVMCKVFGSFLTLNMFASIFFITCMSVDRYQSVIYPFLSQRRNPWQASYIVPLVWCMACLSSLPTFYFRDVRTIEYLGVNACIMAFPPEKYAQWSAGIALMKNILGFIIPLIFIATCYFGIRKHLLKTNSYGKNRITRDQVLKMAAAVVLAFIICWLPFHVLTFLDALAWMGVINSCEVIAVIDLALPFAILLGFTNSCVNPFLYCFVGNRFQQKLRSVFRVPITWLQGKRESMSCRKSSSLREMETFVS
# Test: Competitive radioligand binding assay (SPA), hAT2R HEK293 membranes
# Conditions: [125I]-Tyr4-Angiotensin-II, read-out: AT2R Ki
# Procedure: Compound Solubilization Test and reference compounds were received as dry powder reagents, weighed, and solubilized in 100% DMSO to generate a working stock concentration of 10 mM. Membrane Preparation Protocol (hAT2R HEK293 and rAT2R HEK293) hAT2R membranes were prepared from human embryonic kidney (HEK293) cells which were stably transfected with recombinant human angiotensin-II receptor subtype 2 (hAT2R). Cells from the stable cell lines were expanded in tissue culture flasks to generate a large population of cells; cell pellet (>1 gm), and these cell pellets were stored frozen prior to initiating this membrane isolation procedure for each receptor isoform. Frozen cell pellets were thawed in ice-cold homogenization/resuspension buffer (50 mM Tris-HCl, pH 7.5) containing one Complete© protease inhibitor tablet with EDTA (Roche Diagnostics) per 50 mL buffer, and cell pellet was resuspended at a ratio of 10 mL homogenization buffer to gram of starting cell pellet. Cell suspension was homogenized with an overhead motor-driven Teflon-glass homogenizer using 15 to 20 strokes, followed by centrifugation at 1100×g for 10 minutes at 4° C. The supernatant was saved on ice, pellets were homogenized as before, and centrifuged at 1100×g for 10 minutes at 4° C. Both supernatants were combined and subsequently centrifuged at 35,000×g for 60 minutes at 4° C. The final centrifugation pellet (pellet 2) containing the isolated membranes was resuspended in buffer (4 to 5 mL/g of starting cell paste) containing protease inhibitors and quick frozen in liquid nitrogen prior to storage at -80° C. Protein concentration was determined using a BCA kit (ThermoScientific, Inc.) with bovine serum albumin (BSA) as standard. […] The assays were performed with a scintillation proximity assay (SPA) method using polyvinyltoluene (PVT) wheat germ agglutinin-coupled SPA beads (Perkin Elmer Cat. #RPNQ0001). Assay buffer containing BSA (50 mM Tris-HCl, pH 7.5, 150 mM NaCl, 0.1% w/v fatty-acid free BSA) was used for preparing radioligand, membrane and SPA bead reagent dilution to working stock concentrations. Reference control and test compounds were diluted to obtain ten-point concentration response curves using a four-fold serial dilution protocol onto assay plates, dispensed acoustically from DMSO stock using automated ECHO instrument technology (Labcyte, Inc.). Concentration response curves were routinely generated with the highest final assay concentration for the reference angiotensin-II control at 50 nM, and the highest final assay concentration for the test compounds at 50 μM. […] The hAT2R membrane was combined with PVT-WGA SPA beads to obtain a final assay concentration of 0.25 μg/well hAT2R membrane+0.1 mg/well PVT-WGA SPA bead. And the hAT1R membrane PVT-WGA SPA bead final concentrations was 0.5 μg/well hAT1R membrane+0.1 mg/well PVT-WGA SPA bead. […] For all assays, radioligand addition was followed by the addition of membrane-SPA bead mixture, i.e., the hAT2R membrane-SPA bead mixture (30 μL), the rAT2R membrane-SPA bead mixture, or the AT1R membrane-SPA bead mixture (30 μL) into the assay plate. All dispensing steps were added using a Multiflo FX (Biotek, Inc.) bulk dispensing instrument. After reagent addition steps, assay plates were sealed, and plate contents mixed for one minute on a benchtop micro-plate shaker. Following a 10-hour incubation at room temperature to allow for bead settling and radioligand binding, bound radioactivity was quantitated using a Microbeta Trilux scintillation counter (Perkin Elmer) and expressed as counts per minute (CPM). The unlabeled angiotensin-II control was included on each plate as an experimental assay reference. […] Data Analysis Procedures Compounds were tested in a 10-point concentration response curve (CRC) format, with each plate containing the positive control angiotensin-II positive reference compound, and experimental compounds.
row,SMILES,Ki
1,"CCCCCn1c(Br)nnc1N1CCC(CC(=O)N(c2ccccc2)c2ccccc2)(C(=O)O)CC1 [Example 4, 1-(5-bromo-4-pentyl-1,2,4-triazol-3-yl)-4-[2-oxo-2-(N-phenylanilino)ethyl]piperidine-4-carboxylic acid]",5.13 nM
2,"O=C(N1CCC(CC(=O)N(c2ccccc2)c2cccc(F)c2)(C(=O)O)CC1)N1CCc2ccccc21 [Example 57, 4-[2-(N-(3-fluorophenyl)anilino)-2-oxo-ethyl]-1-(indoline-1-carbonyl)piperidine-4-carboxylic acid]",7.82 nM
3,"O=C(N1CCC(CC(=O)N(c2ccccc2)C2CCCCC2)(C(=O)O)CC1)N1CCc2ccccc21 [Example 6, 4-[2-(N-cyclohexylanilino)-2-oxo-ethyl]-1-(indoline-1-carbonyl)piperidine-4-carboxylic acid]",9.08 nM
4,"O=C(N1CCC(CC(=O)N(c2ccccc2)c2ccccc2F)(C(=O)O)CC1)N1CCc2ccccc21 [Example 56, 4-[2-(N-(2-fluorophenyl)anilino)-2-oxo-ethyl]-1-(indoline-1-carbonyl)piperidine-4-carboxylic acid]",2.99 nM
5,"O=C(CC1(C(=O)O)CCN(c2ncncc2C2CC2)CC1)N(c1ccccc1)c1ccccc1 [Example 5, 1-(5-cyclopropylpyrimidin-4-yl)-4-(2-(diphenylamino)-2-oxoethyl)piperidine-4-carboxylic acid]",9.15 nM
6,"CC(C(=O)N1CCC(CC(=O)N(c2ccccc2)C2CCCC(F)(F)C2)(C(=O)O)CC1)c1ccccc1F (racemic) [Example 64, 4-[2-(N-(3,3-difluorocyclohexyl)anilino)-2-oxo-ethyl]-1-[2-(2-fluorophenyl)propanoyl]piperidine-4-carboxylic acid]",1.04 nM
7,"O=C(N1CCC(CC(=O)N(c2ccccc2)C2CCCC(F)(F)C2)(C(=O)O)CC1)N1CCc2c(F)cccc21 (racemic) [Example 71, 4-[2-(N-(3,3-difluorocyclohexyl)anilino)-2-oxo-ethyl]-1-(4-fluoroindoline-1-carbonyl)piperidine-4-carboxylic acid]",3.14 nM
8,"CC(C)(C)OC(=O)N1CCC(CC(=O)N(c2ccccc2)C2CCCC(F)(F)C2)(C(=O)O)CC1 (single isomer, unassigned) [compound 42]",3.94 nM

# Second part, the compound after the results:
row,Ki,SMILES
1,0.58 nM,"CN(C(=O)N1CCC(CC(=O)N(c2ccccc2F)C2CCCC(F)(F)C2)(C(=O)O)CC1)c1ccccc1 (racemic) [Example 52, 4-[2-(N-(3,3-difluorocyclohexyl)-2-fluoro-anilino)-2-oxo-ethyl]-1-[methyl(phenyl)carbamoyl]piperidine-4-carboxylic acid]"
2,1.89 nM,"CN(C(=O)N1CCC(CC(=O)N(c2ccccc2)c2ccc(Cl)cc2)(C(=O)O)CC1)c1ccc(F)cc1 [compound 31, -[2-(N-(4-chlorophenyl)anilino)-2-oxo-ethyl]-1-[(4-fluorophenyl)-methyl-carbamoyl]piperidine-4-carboxylic acid]"
3,0.573 nM,"CC1CCCC(N(C(=O)CC2(C(=O)O)CCN(C(=O)N(C)c3ccc(F)cc3)CC2)c2ccccc2)C1 (stereo not drawn) [compound 22, 1-[(4-fluorophenyl)-methyl-carbamoyl]-4-[2-(N-(3-methyl-cyclohexyl)anilino)-2-oxo-ethyl]piperidine-4-carboxylic acid]"
4,20.1 nM,"CC(C1CC1)N(C(=O)CC1(C(=O)O)CCN(C(=O)N(C)c2ccc(F)cc2)CC1)c1ccccc1 (single isomer, unassigned) [Example 43B, 4-[2-[N-(1-cyclopropylethyl)anilino]-2-oxo-ethyl]-1-[(4-fluorophenyl)-methyl-carbamoyl]piperidine-4-carboxylic acid]"
5,8.89 nM,"CN(C(=O)N1CCC(CC(=O)N(c2ccccc2)C2CCCOC2)(C(=O)O)CC1)c1ccc(F)cc1 (single isomer, unassigned) [Example 41A, 1-[(4-fluorophenyl)-methyl-carbamoyl]-4-[2-oxo-2-(N-tetrahydropyran-3-ylanilino)ethyl]piperidine-4-carboxylic acid]"
6,2.19 nM,"CC(C1CC1)N(C(=O)CC1(C(=O)O)CCN(C(=O)N(C)c2ccc(F)cc2)CC1)c1ccccc1 (single isomer, unassigned) [Example 43A, 4-[2-[N-(1-cyclopropylethyl)anilino]-2-oxo-ethyl]-1-[(4-fluorophenyl)-methyl-carbamoyl]piperidine-4-carboxylic acid]"
7,16.6 nM,"CN(C(=O)N1CCC(CC(=O)N(c2ccccc2)C2CCCOC2)(C(=O)O)CC1)c1ccc(F)cc1 (racemic) [Example 41, 1-[(4-fluorophenyl)-methyl-carbamoyl]-4-[2-oxo-2-(N-tetrahydropyran-3-ylanilino)ethyl]piperidine-4-carboxylic acid]"
8,1.55 nM,"CN(C(=O)N1CCC(CC(=O)N(c2ccccc2)C2CCCOC2)(C(=O)O)CC1)c1ccc(C2CC2)cc1 (single isomer, unassigned) [Example 45A, 1-[(4-cyclopropylphenyl)-methyl-carbamoyl]-4-[2-oxo-2-(N-tetrahydropyran-3-ylanilino)ethyl]piperidine-4-carboxylic acid]"
9,2.93 nM,"CC(C1CC1)N(C(=O)CC1(C(=O)O)CCN(C(=O)N(C)c2ccc(F)cc2)CC1)c1ccccc1 (racemic) [Example 43, 4-[2-[N-(1-cyclopropylethyl)anilino]-2-oxo-ethyl]-1-[(4-fluorophenyl)-methyl-carbamoyl]piperidine-4-carboxylic acid]"
